According to publication PMC8297771 (PLoS Pathogens, 2021):
“Also recorded” adds a separate entry of the source. Where two headings read alike, the source gives them in different places.

Key:
[1] = system: SIVmac239; assay: In vitro efficacy test against SIVmac239 in CEMx174 cells (p27); type: cell-based, SIV; conditions: p27 assay
Method: CEMx174 cells were infected with HIV-1 primary isolate 89.6 (From infectious clone p89.6, NIH AIDS Reagent Program) at approximately at 10% of cell population determined by FACS analyses. To determine antiviral activity during virus production, STP0404 was added at concentration in the range of 0.1 nM—10 μM during media exchange at 4 hrs post-infection. DMSO was used as a negative control. Cell-free supernatants were measured for p24 antigen production, 5 days post-infection. The anti-HIV-1 efficacy of the two enantiomers of STP0404 were also determined by using the same protocol. All assays were conducted in triplicates. […] For SIVmac239, CEMx174 cells were infected with viral supernatant containing SIVmac293 at 50,000 TCID50/mL (kind gift from Dr. G. Silvestri, Emory Yerkes National Primate Research Center) with 100 μL/10^6 cells at varying concentrations of STP0404, BI224436, and Raltegravir, and the same above protocol was followed except for that p27 capsid antigen content was measured daily for 5 days post infection.
Supplementary file ppat.1009671.s004.tiff: S1 Fig In vitro efficacy tests of STP0404, BI224436 and Raltegravir against SIVmac239 in CEMx174 cell culture. CEMx174 cells were infected with SIVmac239 with various concentrations of STP0404, BI224436, and Raltegravir, and the viral production was determined by p27 assay at 5 days post infection. […]

[2] = Plasma stability determination; type: in vitro ADME, human, monkey, dog, rat and mouse; conditions: all tested species; 5 μM, 60 mins, remaining percentage
Method: STP0404 was incubated with human, monkey, dog, rat and mouse plasma. These incubations were carried out at a test concentration of 5 μM with an incubation period of 60 mins. Samples of human, monkey, dog, rat and mouse were taken at 0, 15, 30, 45, 60 mins. And stop the reaction by taking 50 μL aliquots to 400 μL acetonitrile with internal standard. Propantheline was used as positive control for human, monkey and mouse plasma and mevinolin as the positive control for dog and rat plasma. The remaining percentage was tested. This test was conducted by a fee to service through Pharmaron (Beijing, China).

[3] = Plasma protein binding (equilibrium dialysis); type: in vitro ADME; conditions: Sprague-Dawley (rat), beagle (dog), cynomolgus monkey, pH 7.4, monkey and human plasma, read-out: In vitro protein binding
Method: The current study utilized the 96-well equilibrium dialysis device purchased from HTDialysis to dialyze the test compound and the control compound at 2 μM in plasma at 37±1°C for 4 hrs. Plasma prepared from Sprague-Dawley rats, beagle dog, cynomolgus monkey and humans were previously frozen at below -60°C. The dialysis membrane strips were soaked in ultra-pure water at room temperature for approximately 1 hr. After that, each membrane strip that contains 2 membranes was separated and soaked in ethanol:water (20,80 v,v) for approximately 20 mins, after which it was ready for use or was stored in the solution at 2–8°C for up to a month. Prior to the experiment, the membrane was rinsed and soaked for 20 mins in ultra-pure water. On the day of experiment, the plasma from Sprague-Dawley rats, beagle dogs, cynomolgus monkey and humans was thawed under running cold tap water and centrifuged at 3220×g for 5 mins to remove any clots and the pH value of the resulting plasma will be checked. if required, adjusted to 7.4 ± 0.1. All samples were further processed by protein precipitation for LC/MS/MS analysis (Wuxi AppTec, China).

[4] = In vivo pharmacokinetics in SD rats; conditions: Sprague-Dawley, plasma, Rat
Method: Study design: […]). Group 1 was dosed with STP0404 at 1 mg/kg by single intravenous administration. […] The vehicle used for IV study was DMSO: PEG400: […] Blood samples were collected at 0.0833, 0.25, 0.5, 1, 2, 4, 8, 12 (only for PO groups) and 24 hrs post-dose for Groups 1 to 4. STP0404 concentrations in plasma samples were determined by LC-MS/MS. Preclinical Dog pharmacokinetics study (Study no. 400751-2015020201-DPK): A total of 6 male Beagle dogs were divided into two groups (3 animals/group). Following single STP0404 2 mg/kg oral and intravenous administration to Beagle Dogs, STP0404 concentration was determined in plasma, and pharmacokinetic parameters were calculated. […] The concentrations of STP0404 in plasma were determined by using a LC/MS/MS method.

[5] = Four-week oral dose toxicology study in rats (GLP); design: species or system SD rats; conditions: Sprague-Dawley, rat, in vivo, read-out: no-observed-adverse-effect level (NOAEL)
Method: STP0404 was administered orally to 10 or 15 SD rats/sex/group at dose levels of 100, 300 and 600 mg/kg/day for 4 weeks to evaluate its potential toxicity. The reversibility of any effects was also assessed following a 2-week untreated recovery period. Control animals (15 animals/sex) received the vehicle, 0.5 w/v% methylcellulose solution, in a similar manner for comparison. In addition, plasma STP0404 concentrations were determined using TK satellite animals (3 animals/sex/group) to evaluate systemic exposure of the animals to the test article. (Study no. YL18402). STP0404 was administered orally as a capsule to 4 or 6 dogs/sex/group at dose levels of 30, 60 and 90 mg/kg/day for 4 weeks to evaluate its potential toxicity. Control animals (6 animals/sex) received empty gelatin capsules in a similar manner for comparison. The reversibility of any effects was also assessed following a 2-week untreated recovery period (2 animals/sex/group for the control and 90 mg/kg/day groups). In addition, plasma STP0404 concentrations were determined using all tested animals (including control group) to evaluate systemic exposure of the animals to the test article (Study no. YL18403). The test was performed according to the Standard Operating Procedures (SOP) the Good Laboratory Practice (GLP) system of the INA Research.

Question: Which “inhibition of SIVmac239” value [1] does the source give for `Cc1nc2c(c(C)c(C)n2Cc2cnn(C)c2)c(-c2ccc(Cl)cc2)c1[C@H](OC(C)(C)C)C(=O)O` [STP0404] here?
Answer: Its value is “did not inhibit; also recorded: failed to inhibit”.

Question: And the plasma stability [2]?
Answer: The plasma stability was roughly 100%.

Question: And the fraction unbound at 4 h, 2 μM [3]?
Answer: The fraction unbound at 4 h, 2 μM was 0.003 to 0.061.

Question: And the AUC ([4]; iv, 5 mg/kg (i.v))?
Answer: Its AUC is 42.7 µM·h.

Question: And the half-life ([4]; iv, 5 mg/kg (i.v))?
Answer: The half-life was 3.83 h.

Question: And the AUC ([4]; po, 10 mg/kg (p.o))?
Answer: Its AUC is 78 µM·h.

Question: What about the Cmax ([4]; po, 10 mg/kg (p.o)) of the same molecule?
Answer: Its Cmax is 21.4 µM.

Question: And the half-life ([4]; po, 10 mg/kg (p.o))?
Answer: Its half-life is 4.56 h.

Question: What about the bioavailability ([4]; po, 10 mg/kg (p.o), read-out: Ft (oral bioavailability)) of the same molecule?
Answer: Its bioavailability is 92.8%.

Question: And the NOAEL at 4 weeks ([5]; female rats)?
Answer: Its NOAEL at 4 weeks is 600 mg/kg/day.

Question: What about the NOAEL at 4 weeks ([5]; male rats) of the same molecule?
Answer: The NOAEL at 4 weeks was 300 mg/kg/day.
